According to patent US9718833B2, “Tritoqualine hydrochloride in crystalline form and a process for obtaining same” (priority 2013, dated 2017):
Values after ≈ are worked out from the molar mass of the structure shown.

Key:
[1] = physchem; details: organic solvent or mixture
[2] = biological target: T1, L-histidine decarboxylase (Homo sapiens, UniProt P19113); details: background statement; cited from earlier work
T1 sequence (P19113 1-662): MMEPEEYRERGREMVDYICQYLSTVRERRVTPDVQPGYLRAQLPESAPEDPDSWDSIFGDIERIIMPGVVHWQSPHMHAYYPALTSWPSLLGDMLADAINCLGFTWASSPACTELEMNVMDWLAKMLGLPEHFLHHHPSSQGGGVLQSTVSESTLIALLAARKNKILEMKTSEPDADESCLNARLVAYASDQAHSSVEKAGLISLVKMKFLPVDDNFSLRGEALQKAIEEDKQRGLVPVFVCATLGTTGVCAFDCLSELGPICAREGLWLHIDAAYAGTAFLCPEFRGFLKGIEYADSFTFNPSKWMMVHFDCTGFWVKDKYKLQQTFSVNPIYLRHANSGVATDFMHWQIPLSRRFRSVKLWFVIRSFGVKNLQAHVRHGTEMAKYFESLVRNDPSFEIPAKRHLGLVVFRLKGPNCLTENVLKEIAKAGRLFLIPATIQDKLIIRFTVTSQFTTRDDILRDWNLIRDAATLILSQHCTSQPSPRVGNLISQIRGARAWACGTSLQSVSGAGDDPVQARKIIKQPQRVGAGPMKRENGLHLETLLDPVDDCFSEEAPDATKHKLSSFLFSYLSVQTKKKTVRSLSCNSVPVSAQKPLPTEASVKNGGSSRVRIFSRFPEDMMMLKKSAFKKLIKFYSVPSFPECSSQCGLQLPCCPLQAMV

[3] = in water at room temperature; background statement; cited from earlier work
[4] = Solubility in organic solvents (ethers, alcohols, glycols, ketones); type: physicochemical
[5] = Solubility in ethanol; details: at 20° C.
[6] = Solubility in water
[7] = hydrochloride formed in situ by addition of hydrochloric acid to tritoqualine in solution; background statement; cited from earlier work

| Compound | solubility ([1]; 20 °C) | solubility [1] | melting point | Activity as enzymatic inhibitor of L-histidine decarboxylase [2] | Solubility in water [3] | Solubility in alcohols and glycols compared with tritoqualine base ([4]; alcohols and glycols) | Solubility in ethers ([4]; ethers) | Solubility in primary alcohols, acetone and methyl ethyl ketone ([4]; primary alcohols, acetone, methyl ethyl ketone) | Solubility in ethanol [5] | Behaviour in aqueous solution at pH>3.0 [6] | Half lifetime in an aqueous solution [7] |
| --- | --- | --- | --- | --- | --- | --- | --- | --- | --- | --- | --- |
| CCOc1c(N)c2c(c(OCC)c1OCC)C(C1c3c(cc4c(c3OC)OCO4)CCN1C)OC2=O (centres unmarked) [Base, 7-amino-4,5,6-triethoxy-3-(4-methoxy-6-methyl-7,8-dihydro-5H-[1,3]dioxolo[4,5-g]isoquinoline-5-yl)-3H-isobenzofuran-1-one] | 2.5 mg/mL (≈ 4.99 mM) | 50 mg/mL (≈ 99.9 mM) | 184 °C | very low | 100 ppm | – | – | – | – | – | – |
| tritoqualine hydrochloride | – | – | – | – | – | much more soluble than tritoqualine base | very little soluble or even insoluble | soluble | >300 g/l at | precipitates | a few hours |
